Measurements reported in patent US20260109712A1, “RIFAMYCINS FOR NONTUBERCULOUS MYCOBACTERIA” (priority 2022, published 2026).

Columns and labels:
Settings in all cases: Table 10
[1] = tested on: Δarr M. abscessus; assay: MIC assay, isogenic arr-deleted strain; type: cell-based, Mycobacterium abscessus
Method in brief: (§1)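 Two-fold, ten-point dilutions in 7H9 with 2% DMSO; mid-log culture diluted to OD600=0.1 (1×10^7 CFU/mL). Incubated 3 days at 37 °C, shaking 110 RPM; growth = Day 3 minus Day 0 OD600, expressed as percentage of drug-free growth and plotted against concentration. Two biological replicates.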

[2] = Plasma protein binding assay (rapid equilibrium dialysis); type: in vitro ADME
Experimental: DMSO stocks were spiked into plasma to a concentration of 10,000 ng/mL. 200 μL of spiked plasma was pipetted into the sample chamber of the rapid equilibrium dialysis (RED) cartridge. 350 μL of PBS was added to the adjacent cartridge. The plate containing the RED was sealed and incubated at 37° C. on the thermomixer at 300 RPM for 4 h. After incubation, 50 μL aliquots of plasma were removed and added to 50 μL of blank plasma in a deep well plate (1:1). Similarly, 50 μL aliquots of PBS were removed and added to 50 μL of blank plasma. This created an identical matrix between buffer and non-buffer samples. Samples were processed and quantified as specified in the LC-MS/MS analytical method.

[3] = tested on: M. abscessus ATCC 19977; assay: MIC assay in 96-well plate format, wild-type strain; type: cell-based, Mycobacterium abscessus
Method in brief: as §1

Q: Which MICΔorr [1] does the source give for `CO[C@H]1/C=C/O[C@@]2(C)Oc3c(C)c(O)c4c(c3C2=O)C2=NC3(CCN(CC(C)C)CC3)NC2=C(NC(=O)/C(C)=C/C=C/[C@H](C)[C@H](O)[C@@H](C)[C@@H](O)[C@@H](C)[C@H](OC(=O)NCc2cc(-c3ccccc3)no2)[C@@H]1C)C4=O` [UMN40] here?
A: The MICΔorr was 0.03 µM.

Q: What about the plasma unbound fraction [2] of the same compound?
A: The plasma unbound fraction was 0.12%.

Q: What about the MICWT [3] of the same compound?
A: The MICWT was 0.035 µM.

Q: With `COc1cccc(NC(=O)O[C@H]2[C@H](C)[C@H](O)[C@H](C)[C@@H](O)[C@@H](C)/C=C/C=C(\C)C(=O)NC3=C4NC5(CCN(CC(C)C)CC5)N=C4c4c(c(O)c(C)c5c4C(=O)[C@@](C)(O/C=C/[C@H](OC)[C@H]2C)O5)C3=O)c1` [UMN42] as the compound, how does the MICΔorr [1] read?
A: The MICΔorr was 0.03 µM.

Q: What about the plasma unbound fraction [2] of the same compound?
A: The plasma unbound fraction was 0.09%.

Q: What about the MICWT [3] of the same compound?
A: Its MICWT is 0.025 µM.

Q: Which MICΔorr [1] does the source give for `CO[C@H]1/C=C/O[C@@]2(C)Oc3c(C)c(O)c4c(c3C2=O)C2=NC3(CCN(CC(C)C)CC3)NC2=C(NC(=O)/C(C)=C/C=C/[C@H](C)[C@H](O)[C@@H](C)[C@@H](O)[C@@H](C)[C@H](OC(=O)Nc2ccc(C)cc2)[C@@H]1C)C4=O` [UMN43] here?
A: The MICΔorr was 0.03 µM.

Q: And the plasma unbound fraction [2]?
A: Its plasma unbound fraction is 0.05%.

Q: What about the MICWT [3] of the same compound?
A: The MICWT was 0.05 µM.

Q: For `CO[C@H]1/C=C/O[C@@]2(C)Oc3c(C)c(O)c4c(c3C2=O)C2=NC3(CCN(CC(C)C)CC3)NC2=C(NC(=O)/C(C)=C/C=C/[C@H](C)[C@H](O)[C@@H](C)[C@@H](O)[C@@H](C)[C@H](OC(=O)c2nccs2)[C@@H]1C)C4=O` [UMN45], which MICΔorr [1] is on record?
A: Its MICΔorr is 0.017 µM.

Q: And the plasma unbound fraction [2]?
A: The plasma unbound fraction was 1.89%.

Q: And the MICWT [3]?
A: The MICWT was 0.017 µM.

Q: Which results are given for `CO[C@H]1/C=C/O[C@@]2(C)Oc3c(C)c(O)c4c(c3C2=O)C2=NC3(CCN(CC(C)C)CC3)NC2=C(NC(=O)/C(C)=C/C=C/[C@H](C)[C@H](O)[C@@H](C)[C@@H](O)[C@@H](C)[C@H](OC(=O)N2CCN(CC(C)C)CC2)[C@@H]1C)C4=O` [UMN53]?
A: MICΔorr [1]: 0.02 µM; plasma unbound fraction [2]: 0.20%; MICWT [3]: 0.027 µM

Q: Which MICΔorr [1] does the source give for `CO[C@H]1/C=C/O[C@@]2(C)Oc3c(C)c(O)c4c(c3C2=O)C2=NC3(CCN(CC(C)C)CC3)NC2=C(NC(=O)/C(C)=C/C=C/[C@H](C)[C@H](O)[C@@H](C)[C@@H](O)[C@@H](C)[C@H](OC(=O)Nc2ccncn2)[C@@H]1C)C4=O` [UMN56] here?
A: The MICΔorr was 0.05 µM.

Q: And the plasma unbound fraction [2]?
A: Its plasma unbound fraction is 5.50%.

Q: And the MICWT [3]?
A: Its MICWT is 0.048 µM.

Q: What does the source list for `CO[C@H]1/C=C/O[C@@]2(C)Oc3c(C)c(O)c4c(c3C2=O)C2=NC3(CCN(CC(C)C)CC3)NC2=C(NC(=O)/C(C)=C/C=C/[C@H](C)[C@H](O)[C@@H](C)[C@@H](O)[C@@H](C)[C@H](OC(=O)N2CCN(c3ccccc3)CC2)[C@@H]1C)C4=O` [UMN58]?
A: MICΔorr [1]: 0.049 µM; plasma unbound fraction [2]: 0.13%; MICWT [3]: 0.09 µM

Q: Which results are given for `CO[C@H]1/C=C/O[C@@]2(C)Oc3c(C)c(O)c4c(c3C2=O)C2=NC3(CCN(CC(C)C)CC3)NC2=C(NC(=O)/C(C)=C/C=C/[C@H](C)[C@H](O)[C@@H](C)[C@@H](O)[C@@H](C)[C@H](OC(=O)N2CCCC2(C)C)[C@@H]1C)C4=O` [UMN61]?
A: MICΔorr [1]: 0.052 µM; plasma unbound fraction [2]: 0.17%; MICWT [3]: 0.08 µM

Q: What does the source list for `CO[C@H]1/C=C/O[C@@]2(C)Oc3c(C)c(O)c4c(c3C2=O)C2=NC3(CCN(CC(C)C)CC3)NC2=C(NC(=O)/C(C)=C/C=C/[C@H](C)[C@H](O)[C@@H](C)[C@@H](O)[C@@H](C)[C@H](OC(=O)N2CCN(C(C)(C)C)CC2)[C@@H]1C)C4=O` [UMN63]?
A: MICΔorr [1]: 0.043 µM; plasma unbound fraction [2]: 3.60%; MICWT [3]: 0.077 µM

Q: For `CO[C@H]1/C=C/O[C@@]2(C)Oc3c(C)c(O)c4c(c3C2=O)C2=NC3(CCN(CC(C)C)CC3)NC2=C(NC(=O)/C(C)=C/C=C/[C@H](C)[C@H](O)[C@@H](C)[C@@H](O)[C@@H](C)[C@H](OC(=O)Nc2cccnn2)[C@@H]1C)C4=O` [UMN64], which MICΔorr [1] is on record?
A: Its MICΔorr is 0.034 µM.

Q: And the plasma unbound fraction [2]?
A: The plasma unbound fraction was 4.15%.

Q: What about the MICWT [3] of the same compound?
A: The MICWT was 0.032 µM.

Q: Which MICΔorr [1] does the source give for `CO[C@H]1/C=C/O[C@@]2(C)Oc3c(C)c(O)c4c(c3C2=O)C2=NC3(CCN(CC(C)C)CC3)NC2=C(NC(=O)/C(C)=C/C=C/[C@H](C)[C@H](O)[C@@H](C)[C@@H](O)[C@@H](C)[C@H](OC(=O)Nc2cccnc2)[C@@H]1C)C4=O` [UMN67] here?
A: The MICΔorr was 0.025 µM.

Q: And the plasma unbound fraction [2]?
A: Its plasma unbound fraction is 1.75%.

Q: What about the MICWT [3] of the same compound?
A: Its MICWT is 0.025 µM.
